Assay results as given in patent US9932327B2, “Rohitukine analogs as cyclin-dependent kinase inhibitors and a process for the preparation thereof” (COUNCIL OF SCIENTIFIC AND INDUSTRIAL RESEARCH, priority 2013, dated 2018).

Assays:
Assay type in all cases: cell-based
HL-60 (Leukemia) = experiment: Cytotoxicity, MTT assay, HL-60; conditions: Homo sapiens; for inhibition at 10 µM: read-out: Cell Growth Inhibition (%)
Experimental: (§1) Compounds proposed in the present invention were evaluated for their cytotoxic effect against panel of six cancer cell line viz. HL-60 (Leukemia), PC-3 (Prostate), A-375 (Melanoma), MIAPaCa-2 (pancreatic), MCF-7 (Breast) and Caco-2 (Colon) using MTT assay. In each well of a 96-well plate, 3×10^3 cells were grown in 100 μL of medium. After 24 h, each test molecules were added to achieve a final concentration of 10 to 0.01 μmol/L, respectively. After 48 h of treatment, 20 μL of 2.5 mg/mL MTT (Organics Research, Inc.) solution in phosphate buffer saline was added to each well. After 48 h, supernatant was removed and formazan crystals were dissolved in 200 μL of DMSO. Absorbance was then measured at 570 nm using an absorbance plate reader (Bio-Rad Microplate Reader). Data are expressed as the percentage of viable cells in treated relative to non-treated conditions.

A-375 (Melanoma) = experiment: Cytotoxicity, MTT assay, A-375; conditions: Homo sapiens; for inhibition at 10 µM: read-out: Cell Growth Inhibition (%)
Experimental: as §1

Caco-2 (Colon) = experiment: Cytotoxicity, MTT assay, Caco-2; conditions: Homo sapiens; for inhibition at 10 µM: read-out: Cell Growth Inhibition (%)
Experimental: as §1

MCF-7 (Breast) = experiment: Cytotoxicity, MTT assay, MCF-7; conditions: Homo sapiens; for inhibition at 10 µM: MCF7, 10 μM, read-out: Cell Growth Inhibition (%); for IC50: MCF7
Experimental: as §1

MIAPaCa-2 (pancreatic) = experiment: Cytotoxicity, MTT assay, MIAPaCa-2; conditions: Homo sapiens, MIA PaCa-2, read-out: Cell Growth Inhibition (%)
Experimental: as §1

PC-3 (Prostate) = experiment: Cytotoxicity, MTT assay, PC-3; conditions: for inhibition at 10 µM: read-out: Cell Growth Inhibition (%)
Experimental: as §1

| SMILES | inhibition at 10 µM (HL-60 (Leukemia)) [%] | inhibition at 10 µM (A-375 (Melanoma)) [%] | inhibition at 10 µM (Caco-2 (Colon)) [%] | inhibition at 10 µM (MCF-7 (Breast)) [%] | inhibition at 10 µM (MIAPaCa-2 (pancreatic)) [%] | inhibition at 10 µM (PC-3 (Prostate)) [%] | IC50 (A-375 (Melanoma)) [µM] | IC50 (HL-60 (Leukemia)) [µM] | IC50 (PC-3 (Prostate)) [µM] | IC50 (MCF-7 (Breast)) [µM] | IC50 (Caco-2 (Colon)) [µM] |
| --- | --- | --- | --- | --- | --- | --- | --- | --- | --- | --- | --- |
| Cc1cc(=O)c2c(O)cc(OCc3ccccc3)c(C3CCN(C)CC3O)c2o1 (stereo not drawn) [Compound 2, 7-(benzyloxy)-5-hydroxy-8-(3-hydroxy-1-methylpiperidin-4-yl)-2-methyl-4H-chromen-4-one] | 24.3 | 27.8 | 17.6 | 1.44 | 13.8 | 41 |  |  |  |  |  |
| COc1ccc(COc2cc(O)c3c(=O)cc(C)oc3c2C2CCN(C)CC2O)cc1 (stereo not drawn) [Compound 3, 7-(4-Methoxybenzyloxy)-5-hydroxy-8-(3-hydroxy-1-methylpiperidin-4-yl)-2-methyl-4H-chromen-4-one] | 22.8 |  | 8.43 | 15.6 | 15.7 | 35.2 |  |  |  |  |  |
| Cc1cc(=O)c2c(O)cc(OCc3ccc(Br)cc3)c(C3CCN(C)CC3O)c2o1 (stereo not drawn) [Compound 4, 7-(4-Bromobenzyloxy)-5-hydroxy-8-(3-hydroxy-1-methylpiperidin-4-yl)-2-methyl-4H-chromen-4-one] | 26.9 | 45.5 | 13 | 14 | 13.2 | 17.1 |  |  |  |  |  |
| Cc1cc(=O)c2c(O)cc(OCc3ccco3)c(C3CCN(C)CC3O)c2o1 (stereo not drawn) [Compound 5, 7-((Furan-2-yl)methoxy)-5-hydroxy-8-(3-hydroxy-1-methylpiperidin-4-yl)-2-methyl-4H-chromen-4-one] | 31.9 | 36.8 | 16.9 | 5.73 | 6.61 | 14.1 |  |  |  |  |  |
| Cc1cc(=O)c2c(O)cc(OCc3cccs3)c(C3CCN(C)CC3O)c2o1 (stereo not drawn) [Compound 6, 7-((Thiophen-2-yl)methoxy)-5-hydroxy-8-(3-hydroxy-1-methylpiperidin-4-yl)-2-methyl-4H-chromen-4-one] | 22.2 | 53.8 | 33.3 | 19.8 | 13.2 | 22.8 | 8 |  |  |  |  |
| Cc1cc(=O)c2c(O)cc(OC/C=C/c3ccccc3)c(C3CCN(C)CC3O)c2o1 (stereo not drawn) [Compound 7, 7-(Cinnamyloxy)-5-hydroxy-8-(3-hydroxy-1-methylpiperidin-4-yl)-2-methyl-4H-chromen-4-one] | 21 | 21.8 | 9.49 | 7.02 | 11.2 | 18.3 |  |  |  |  |  |
| Cc1cc(=O)c2c(O)cc(OCc3ccc([N+](=O)[O-])cc3)c(C3CCN(C)CC3O)c2o1 (stereo not drawn) [Compound 8, 7-(4-Nitrobenzyloxy)-5-hydroxy-8-(3-hydroxy-1-methylpiperidin-4-yl)-2-methyl-4H-chromen-4-one] | 14.4 | 37.5 | 13.6 | 39.3 | 12.4 | 23 |  |  |  |  |  |
| Cc1cc(=O)c2c(O)cc(OCc3ccccc3Br)c(C3CCN(C)CC3O)c2o1 (stereo not drawn) [Compound 9, 7-(2-Bromobenzyloxy)-5-hydroxy-8-(3-hydroxy-1-methylpipetidin-4-yl)-2-methyl-4H-chromen-4-one] | 3.05 | 58.6 | 35.1 | 45.4 | 29.7 | 31.7 | 12 |  |  |  |  |
| Cc1cc(=O)c2c(O)cc(OCc3nc4ccccc4[nH]3)c(C3CCN(C)CC3O)c2o1 (stereo not drawn) [Compound 10, 7-((1H-Benzo[d]imidazol-2-yl)methoxy)-5-hydroxy-8-(3-hydroxy-1-methylpiperidin-4-yl)-2-methyl-4H-chromen-4-one] |  |  |  |  |  |  |  | 8 |  |  |  |
| Cc1cc(=O)c2c(O)cc(OC(=O)c3ccco3)c(C3CCN(C)CC3O)c2o1 (stereo not drawn) [Compound 11, 5-Hydroxy-8-(3-hydroxy-1-methylpiperidin-4-yl)-2-methyl-4-oxo-4H-chromen-7-yl furan-2-carboxylate] | 80.2 | 11.2 | 1.96 | 2.86 | 16.1 | 15.1 |  |  |  |  |  |
| Cc1cc(=O)c2c(O)cc(OC(=O)c3ccccc3C)c(C3CCN(C)CC3O)c2o1 (stereo not drawn) [Compound 12, 5-Hydroxy-8-(3-hydroxy-1-methylpiperidin-4-yl)-2-methyl-4-oxo-4H-chromen-7-yl 2-methylbenzoate] | 12.8 | 42 | 6.53 | 13.4 | 7.19 | 18.6 |  |  |  |  |  |
| Cc1oc2c(C3CCN(C)CC3O)c(O)cc(O)c2c(=O)c1C(O)c1ccc([N+](=O)[O-])cc1 (stereo not drawn) [Compound 13, 5,7-Dihydroxy-3-(hydroxy(4-nitrophenyl)methyl)-8-(3-hydroxy-1-methylpiperidin-4-yl)-2-methyl-4H-chromen-4-one] | 0 | 35.9 | 5.08 | 4.03 | 2.48 | 23.8 |  |  |  |  |  |
| Cc1oc2c(C3CCN(C)CC3O)c(O)cc(O)c2c(=O)c1C(O)c1ccc(Cl)cc1 (stereo not drawn) [Compound 14, 3-((4-Chlorophenyl)(hydroxy)methyl)-5,7-dihydroxy-8-(3-hydroxy-1-methylpiperidin-4-yl)-2-methyl-4H-chromen-4-one] | 1.93 | 34.2 | 2.83 | 5.91 | 14.8 | 41 |  | 11 |  |  |  |
| Cc1oc2c(C3CCN(C)CC3O)c(O)cc(O)c2c(=O)c1C(O)c1ccccc1Br (stereo not drawn) [Compound 15, 3-((2-Bromophenyl)(hydroxy)methyl)-5,7-dihydroxy-8-(3-hydroxy-1-methylpiperidin-4-yl)-2-methyl-4H-chromen-4-one] | 52 | 22.4 | 6.62 | 20.6 | 10.1 | 44.5 |  |  |  |  |  |
| Cc1oc2c(C3CCN(C)CC3O)c(O)cc(O)c2c(=O)c1C(O)c1cccc(Cl)c1 (stereo not drawn) [Compound 17, 3-((3-Chlorophenyl)(hydroxy)methyl)-5,7-dihydroxy-8-(3-hydroxy-1-methylpiperidin-4-yl)-2-methyl-4H-chromen-4-one] | 22.2 | 34.9 | 4.42 | 5.01 | 1.52 | 31 |  |  |  |  |  |
| Cc1oc2c(C3CCN(C)CC3O)c(O)cc(O)c2c(=O)c1C(O)c1c(Cl)cccc1Cl (stereo not drawn) [Compound 20, 3-((2,6-dichlorophenyl)(hydroxy)methyl)-5,7-dihydroxy-8-(3-hydroxy-1-methylpiperidin-4-yl)-2-methyl-4H-chromen-4-one] |  |  |  |  |  |  |  |  | 5 |  |  |
| Cc1oc2c(C3CCN(C)CC3O)c(O)cc(O)c2c(=O)c1C(O)c1c(F)cccc1Cl (stereo not drawn) [Compound 21, 3-((2-Chloro-6-fluorophenyl)(hydroxy)methyl)-5,7-dihydroxy-8-(3-hydroxy-1-methylpiperidin-4-yl)-2-methyl-4H-chromen-4-one] | 25.4 | 20.8 | 5.94 | 13.6 | 8.58 | 72.5 |  |  |  |  |  |
| CN1CCC(c2c(O)cc(O)c3c(=O)cc(/C=C/c4cccc(Cl)c4)oc23)C(O)C1 (stereo not drawn) [Compound 28, 2-(3-Chlorostyryl)-5,7-dihydroxy-8-(3-hydroxy-1-methylpiperidin-4-yl)-4H-chromen-4-one] | 24.3 | 65.9 | 27.5 | 80.4 | 40.3 | 53.7 | 4 |  | 10 | 2 |  |
| CN1CCC(c2c(O)cc(O)c3c(=O)cc(/C=C/c4c5ccccc5cc5ccccc45)oc23)C(O)C1 (stereo not drawn) [Compound 29, 2-((E)-2-(Anthracen-10-yl)vinyl)-5,7-dihydroxy-8-(3-hydroxy-1-methylpiperidin-4-yl)-4H-chromen-4-one] | 12.1 | 4.96 | 0 | 12.7 | 17 | 50.5 |  |  | 12 |  |  |
| CN1CCC(c2c(O)cc(O)c3c(=O)cc(/C=C/c4ccccc4)oc23)C(O)C1 (stereo not drawn) [Compound 31, 2-styryl-5,7-dihydroxy-8-(3-hydroxy-1-methylpiperidin-4-yl)-4H-chromen-4-one] |  |  |  |  |  |  | 4.4 | 1 | 58 | 31 | 3.7 |
| CN1CCC(c2c(O)cc(O)c3c(=O)cc(/C=C/c4ccc(Cl)cc4)oc23)C(O)C1 (stereo not drawn) [Compound 32, 2-(4-Chlorostyryl)-5,7-dihydroxy-8-(3-hydroxy-1-methylpiperidin-4-yl)-4H-chromen-4-one] |  |  |  |  |  |  | 30 | 8 | 31 | 49 | 5.6 |
